Data published in ChEMBL document CHEMBL1201862, “PubChem BioAssay data set” (2004).
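These data come from cells grown in 96-well plates and exposed to compound for 48 hours at five concentrations. GI50: concentration for 50% inhibition of growth.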 The source made the active and inactive calls. Cut-off read from the data, not from the text of the source: active = GI50 up to about 1.1 µM and inactive = higher.

Experiments:
Assay in all cases: NCI tumour cell line growth inhibition, 48 h
M14 = tested on: M14
SNB-19 = tested on: SNB-19
NCI-H460 = tested on: NCI-H460
SF-539 = tested on: SF-539
T47D = tested on: T47D
COLO 205 = tested on: COLO 205
SN12C = tested on: SN12C
NCI-H522 = tested on: NCI-H522
UO-31 = tested on: UO-31
SNB-75 = tested on: SNB-75
OVCAR-4 = tested on: OVCAR-4
SW-620 = tested on: SW-620
MDA-N = tested on: MDA-N
ACHN = tested on: ACHN
MDA-MB-231 = tested on: MDA-MB-231
SF-268 = tested on: SF-268
HCT-15 = tested on: HCT-15
DU-145 = tested on: DU-145
SK-MEL-5 = tested on: SK-MEL-5
MDA-MB-435 = tested on: MDA-MB-435
EKVX = tested on: EKVX
MOLT-4 = tested on: MOLT-4
SF-295 = tested on: SF-295
NCI-H23 = tested on: NCI-H23
A498 = tested on: A498
LOX IMVI = tested on: LOX IMVI
HCC 2998 = tested on: HCC 2998
PC-3 = tested on: PC-3
U-251 = tested on: U-251
CCRF-CEM = tested on: CCRF-CEM
SK-OV-3 = tested on: SK-OV-3
CAKI-1 = tested on: CAKI-1
HL-60 = tested on: HL-60
OVCAR-5 = tested on: OVCAR-5
UACC-62 = tested on: UACC-62
MCF7 = tested on: MCF7
IGROV-1 = tested on: IGROV-1
K562 = tested on: K562
HOP-62 = tested on: HOP-62
RXF 393 = tested on: RXF 393
NCI/ADR-RES = tested on: NCI/ADR-RES
HCT-116 = tested on: HCT-116
OVCAR-8 = tested on: OVCAR-8
786-0 = tested on: 786-0
A549 = tested on: A549
SK-MEL-2 = tested on: SK-MEL-2
Hs-578T = tested on: Hs-578T
RPMI-8226 = tested on: RPMI-8226
TK-10 = tested on: TK-10
HT-29 = tested on: HT-29
NCI-H226 = tested on: NCI-H226
UACC-257 = tested on: UACC-257
OVCAR-3 = tested on: OVCAR-3
Malme-3M = tested on: Malme-3M
SK-MEL-28 = tested on: SK-MEL-28
HOP-92 = tested on: HOP-92
KM12 = tested on: KM12
SR = tested on: SR
BT-549 = tested on: BT-549

Cc1ccc([N+](=O)[O-])c2c(NCCNC(=O)Cn3ccnc3[N+](=O)[O-])ccnc12
GI50 (M14): > 100 µM (inactive) | GI50 (SNB-19): 28.9 µM (inactive) | GI50 (NCI-H460): 28.2 µM (inactive) | GI50 (SF-539): 35.5 µM (inactive) | GI50 (T47D): 35.2 µM (inactive) | GI50 (COLO 205): 41 µM (inactive) | GI50 (SN12C): 38.3 µM (inactive) | GI50 (NCI-H522): 15.5 µM (inactive) | GI50 (UO-31): > 100 µM (inactive) | GI50 (SNB-75): > 100 µM (inactive) | GI50 (OVCAR-4): 33.3 µM (inactive) | GI50 (SW-620): 37.7 µM (inactive) | GI50 (MDA-N): 69.5 µM (inactive) | GI50 (ACHN): 44.2 µM (inactive) | GI50 (MDA-MB-231): 32 µM (inactive) | GI50 (SF-268): 36.5 µM (inactive) | GI50 (HCT-15): > 100 µM | GI50 (DU-145): 57.3 µM (inactive) | GI50 (SK-MEL-5): 17.8 µM (inactive) | GI50 (MDA-MB-435): 94.6 µM (inactive) | GI50 (EKVX): > 100 µM (inactive) | GI50 (MOLT-4): > 100 µM (inactive) | GI50 (SF-295): 20.5 µM (inactive) | GI50 (NCI-H23): 54.2 µM (inactive) | GI50 (A498): 31.6 µM (inactive) | GI50 (LOX IMVI): 45.8 µM (inactive) | GI50 (HCC 2998): 39.6 µM (inactive) | GI50 (PC-3): 28.8 µM (inactive) | GI50 (U-251): 36.6 µM (inactive) | GI50 (CCRF-CEM): > 100 µM (inactive) | GI50 (SK-OV-3): 21.6 µM (inactive) | GI50 (CAKI-1): 31.8 µM (inactive) | GI50 (HL-60): > 100 µM (inactive) | GI50 (OVCAR-5): 35.5 µM (inactive) | GI50 (UACC-62): 22.7 µM (inactive) | GI50 (MCF7): 18.9 µM (inactive) | GI50 (IGROV-1): 25.6 µM (inactive) | GI50 (K562): 64.1 µM (inactive) | GI50 (HOP-62): 20.7 µM (inactive) | GI50 (RXF 393): 1.42 µM (inactive) | GI50 (NCI/ADR-RES): > 100 µM (inactive) | GI50 (HCT-116): 43.7 µM (inactive) | GI50 (OVCAR-8): 31.3 µM (inactive) | GI50 (786-0): 34.8 µM (inactive) | GI50 (A549): 48.5 µM (inactive) | GI50 (SK-MEL-2): 43.6 µM (inactive) | GI50 (Hs-578T): 28.3 µM (inactive) | GI50 (RPMI-8226): 96.6 µM (inactive) | GI50 (TK-10): 88.3 µM (inactive) | GI50 (HT-29): 32.4 µM (inactive) | GI50 (NCI-H226): 26.2 µM (inactive) | GI50 (UACC-257): 29.1 µM (inactive) | GI50 (OVCAR-3): 23.2 µM (inactive) | GI50 (Malme-3M): 28.6 µM (inactive) | GI50 (SK-MEL-28): 57.7 µM (inactive) | GI50 (HOP-92): 26.5 µM (inactive) | GI50 (KM12): 52.2 µM (inactive) | GI50 (SR): > 100 µM (inactive)

CN1C2CCC1C(CO)C(=O)C2 (stereo unspecified)
GI50 (NCI-H460): > 100 µM (inactive) | GI50 (SF-539): 23.2 µM (inactive) | GI50 (T47D): 21 µM (inactive) | GI50 (COLO 205): 17.6 µM (inactive) | GI50 (NCI-H522): 16.1 µM (inactive) | GI50 (SNB-75): > 100 µM (inactive) | GI50 (OVCAR-4): > 100 µM (inactive) | GI50 (SW-620): 20.4 µM (inactive) | GI50 (ACHN): 38.6 µM (inactive) | GI50 (MDA-MB-231): > 100 µM (inactive) | GI50 (SF-268): > 100 µM (inactive) | GI50 (HCT-15): 24.9 µM | GI50 (DU-145): > 100 µM (inactive) | GI50 (SK-MEL-5): > 100 µM (inactive) | GI50 (MDA-MB-435): > 100 µM (inactive) | GI50 (MOLT-4): 18.2 µM (inactive) | GI50 (SF-295): > 100 µM (inactive) | GI50 (NCI-H23): > 100 µM (inactive) | GI50 (A498): > 100 µM (inactive) | GI50 (LOX IMVI): > 100 µM (inactive) | GI50 (HCC 2998): > 100 µM (inactive) | GI50 (PC-3): > 100 µM (inactive) | GI50 (U-251): > 100 µM (inactive) | GI50 (CCRF-CEM): 10.2 µM (inactive) | GI50 (SK-OV-3): > 100 µM (inactive) | GI50 (CAKI-1): 32.7 µM (inactive) | GI50 (HL-60): 3.56 µM (inactive) | GI50 (UACC-62): > 100 µM (inactive) | GI50 (MCF7): 22.6 µM (inactive) | GI50 (IGROV-1): > 100 µM (inactive) | GI50 (K562): 24.6 µM (inactive) | GI50 (HOP-62): > 100 µM (inactive) | GI50 (RXF 393): 57.4 µM (inactive) | GI50 (NCI/ADR-RES): > 100 µM (inactive) | GI50 (OVCAR-8): 50.9 µM (inactive) | GI50 (SK-MEL-2): > 100 µM (inactive) | GI50 (Hs-578T): > 100 µM (inactive) | GI50 (RPMI-8226): 21.3 µM (inactive) | GI50 (TK-10): 22.9 µM (inactive) | GI50 (NCI-H226): > 100 µM (inactive) | GI50 (UACC-257): 85.1 µM (inactive) | GI50 (OVCAR-3): > 100 µM (inactive) | GI50 (Malme-3M): 28.9 µM (inactive) | GI50 (BT-549): > 100 µM (inactive) | GI50 (SK-MEL-28): > 100 µM (inactive) | GI50 (HOP-92): > 100 µM (inactive) | GI50 (KM12): > 100 µM (inactive) | GI50 (SR): 26.1 µM (inactive)
